# Patent US20250114313A1, “OLIGO-BENZAMIDE ANALOGS AND THEIR USE IN CANCER TREATMENT” (BOARD OF REGENTS, THE UNIVERSITY OF TEXAS SYSTEM, priority 2022, published 2025)
# How the values were obtained:
# [1] = Pharmacokinetics in MDA-MB-231 xenograft tumor-bearing mice (LC-MS/MS); type: in vivo
# Description: Analytical LC-MS/MS conditions: Compound levels in plasma and tissues for in vivo pharmacokinetic (PK) studies were monitored by LC-MS/MS using an AB Sciex (Framingham, MA) 6500^+ QTRAP® mass spectrometer coupled to a Shimadzu (Columbia, MD) Prominence LC. Analytes were detected with the mass spectrometer in positive MRM (multiple reaction monitoring) mode by following the precursor to fragment ion transition 705.3→592.3. An Agilent C18 XDB column (5 micron, 50×4.6 mm) was used for chromatography for PK studies with the following conditions: Buffer A: dH2O+0.1% formic acid, Buffer B: methanol+0.1% formic acid, 0-1.0 min 5% B, 1.0-2 min gradient to 98% B, 2-3.0 min 98% B, 3.0-3.2 min gradient to 5% B, 3.2-4.5 min 5% B. Tolbutamide (transition 271.2 to 91.2) from Sigma (St. Louis, MO) was used as an internal standard (IS). Pharmacokinetic studies were performed in MDA-MB-231 xenograft tumor-bearing female NOD-SCID mice. ERX-41 was given either orally or intraperitoneally (10 mg/kg single dose). Animals were sacrificed in groups of three, blood was obtained by cardiac puncture at each time point (0, 0.5, 1.5, 3, 6 and 24 hours post dose) using the anticoagulant EDTA and plasma isolated by centrifugation. Tumor and liver were also collected and snap frozen in liquid nitrogen after rinsing with PBS to remove surface adhering blood. Tissues were homogenized in a 3-fold volume (weight by volume) of PBS to generate a homogenate. 100 μl of plasma or tissue homogenate was mixed with 200 μl of methanol containing 0.15% formic acid and 15 ng/mL tolbutamide IS. The samples were vortexed 15 sec, incubated at room temp for 10 min and spun twice at 16,100×g 4° C. in a refrigerated microcentrifuge. The amount of compound present in plasma, tumor and liver was quantified by LC-MS/MS to determine the amount of compound in each matrix. Standard curves were generated using blank plasma (Bioreclamation, Westbury, NY, RRID:SCR_004728) or blank tissue homogenate spiked with known concentrations of test compound and processed as described above. The concentrations of drug in each time-point sample were quantified using Analyst 1.7.1 software (Sciex). A value of 3-fold above the signal obtained from blank plasma or tissue homogenate was designated the limit of detection (LOD). The lower limit of quantitation (LLOQ) was defined as the lowest concentration at which back calculation yielded a concentration within 20% of theoretical and which was above the LOD. The LLOQ for plasma and tumor was 0.1 ng/mL and 1 ng/mL in liver. PK parameters, Cmax, Tmax, Terminal T½ (calculated as Ln(2)/λz), AUClast (area under the concentration time curve to the last measured value determined by linear trapezoidal rule), Cl (clearance measured as Dose/AUCinf), and Vz (volume of distribution based on the terminal phase=Dose/AUCinf*λz) were calculated using the noncompartmental analysis tool of Phoenix WinNonLin version 8.01 (Certara/Pharsight, Sunnyvale, CA, RRID:SCR_003163).
# [2] = tested on: TNBC cells (MDA-MB-231); assay: Transmission electron microscopy of ER; type: cell-based, Human; conditions: 1 μM, within 4 h
# Procedure: Transmission Electron Microscopy: DMSO or ERX-41 treated cells were fixed with 2.5% glutaraldehyde (Electron Microscopy Sciences) in 0.1 M sodium cacodylate pH7.4 buffer (Electron Microscopy Sciences) for 20 min at room temperature. After rinsing with 0.1 M sodium cacodylate pH7.4 buffer, cells were further fixed with 1% Osmium with 0.8% K3Fe(CN6) in 0.1 M sodium cacodylate pH7.4 buffer. After pre-staining with 4% uranyl acetate in 50% ethanol, cells were dehydrated with series concentrations of ethanol (from 50% to 100%). After transitioning from propylene oxide to resin and embedding in Embed 812 resin (Electron Microscopy Sciences), cells were located using light microscopy and trimmed out. 60-70 nm-thin sections were cut, mounted on formvar-coated grids, and viewed by a transmission electron microscope (Tecnai G2 spirit; FEI) equipped with a LaB6 source using a voltage of 120 kV.
# [3] = tested on: SUM-159 cells with LIPA-KO reconstituted with LIPA constructs; assay: Response of SUM-159 LIPA KO cells reconstituted with LIPA constructs (CellTiter-Glo, western, RT-qPCR); type: cell-based, Human
# Procedure: Cell viability assays: Cells were seeded in 96-well plates (2×10^3 cells/well) one day before the treatment. Cells were treated with varying concentrations of ERX-41 or ERX-11 analogs for 3-6 days. Then effects of ERX-41 or ERX-11 analogs on cell viability were measured in triplicate or sextuplicate with multiple biological replicates using the WST-1 (Promega), MTT as previously described^33 or CellTiter-Glo 2.0 (Promega) assays.
# Lentiviral constructs cloning: LentiCRISPRv2 vector was used for CRSPR KO experiments. sgRNAs, which were chosen from human CRISPR knockout pooled library, were cloned into lentiCRISPRv2 vector^34. Human LIPA cDNA (GenBank: BC012287) or mouse LIPA cDNA (NM_021460) were clone into pWPI for over expression experiments. For TurboID experiment, the LIPA-TurboID sequence was cloned into pCW57-MCS1-2A-MCS2 vector. LentiCRISPR v2 was purchased from Addgene (Addgene #52961; //n2t.net/addgene:52961; RRID:Addgene_52961) (via Feng Zhang). pWPI was purchased from Addgene (Addgene #12254; //n2t.net/addgene:12254; RRID:Addgene_12254) (via Didier Trono). pCW57-MCS1-2A-MCS2 was purchased from Addgene (#71782) (via Adam Karpf). Human LIPA gene is referred as LIPA, while mouse LIPA gene is referred as mLIPA in this disclosure. Since LIPA overexpression was introduced in LIPA CRISPR KO background, to avoid being targeted by CRISPR-cas9, the LIPA sgRNA target sequence including PAM, tt aac cga att cct cat ggg agg, was mutated to tt aac cga att cct caC ggA agA in all of the LIPA overexpression constructs without protein coding change. In-Fusion Cloning kit (Takara) was used to generate different mutants of LIPA.
# Western blotting: Whole cell lysates from breast cancer cells were prepared with 2× sample buffer (60 mM Tris-HCl, pH 6.8, 2% sodium dodecyl sulfate, 10% glycerol), and before loading mixed with loading buffer (5% 2-mercaptoethanol, 0.1% bromophenol blue) and boiled for denaturation, as previously described.^33 Proteins were separated by SDS-PAGE and subjected to Western analysis using antibodies. To detect nascent translated proteins, puromycin (final concentration 10 μg/mL) was added into cell plates 30 minutes before harvesting cells. Then samples were subjected to the Western blotting. Nascent proteins were detected by anti-puromycin antibody.
# Real-time quantitative PCR (RT-qPCR): Total RNA was prepared from breast cancer cells using the RNeasy Mini Kit (Qiagen) according to the manufacturer protocols. Subsequently, total RNAs were reverse transcribed into cDNA using iScript Reverse Transcription Supermix (Bio-rad) and by using SYBR Green on an Illumina Real-Time PCR system.
structure (smiles),measurement,setting,value
CC(C)COc1cc(C(=O)Nc2ccc(C(=O)N[C@H]3CC[C@H](C)CC3)cc2OCC(C)C)ccc1NC(=O)c1ccc([N+](=O)[O-])c(OCCO)c1 [ERX-41],drug level in treated tumor tissues at 24 h,[1]; 10 mg/kg single dose,detectable levels of ERX-41 at 24 h
same,oral bioavailability,"[1]; mouse, in vivo, po",orally bioavailable
same,time to detection in liver and kidneys,[1]; oral administration,≤ 4 h
same,time to detection in subcutaneous MDA-MB-231 xenograft tumors,[1]; oral or intraperitoneal administration,≤ 1.5 h
same,time of peak detectable levels in plasma,"[1]; oral, 10 mg/kg single dose",4 h
same,ER morphology by TEM,[2],dramatic dilation of the ER
same,responsiveness with mouse LXXLL sequence or mouse LIPA cDNA,[3]; ER stress and cell death,restore responsiveness
same,IC50,"[3]; Homo sapiens, SUM159, SUM-159 LIPA-KO + WT-LIPA, read-out: IC50 after reconstitution of WT-LIPA (KO+WT)",250 nM
same,proliferation and ER stress with LXXLL point mutants,"[3]; KO+L242P, KO+L239P/L242P, KO+L239P/L242P/L243P",inability of ERX-41 to affect proliferation or induce ER stress
same,sensitivity after reconstitution of ΔLXXLL MT-LIPA (KO+ΔLXXLL),[3]; lipase-competent mutant,did not restore sensitivity to ERX-41
same,sensitivity after reconstitution of H274Y MT-LIPA (KO+H274Y),[3]; lipase-incompetent mutant,restored sensitivity to ERX-41
same,ER stress and proliferation with LIPA with added KDEL sequence,[3]; localized to the ER,restores the ability of ERX-41 to cause ER stress
same,ER stress and proliferation with LIPA lacking the signal peptide,[3]; not localized to the ER,nor restore the ability of ERX-41 to cause ER stress
